Reference: patent publication US20130123460A1, “PEPTIDE FOR IMPROVING BIOSTABILITY OF BIOACTIVE SUBSTANCE, AND BIOACTIVE SUBSTANCE HAVING IMPROVED BIOSTABILITY” (priority 2010, published 2013)
Where no end group is shown, it is not given here.

What was measured:
endogenous VIP receptor = target: T1, endogenous VIP receptor (Homo sapiens, UniProt P41587); test: cAMP productivity in SUP-T1 cells; assay type: cell-based; settings: 3-3000 nM, IBMX, 30 minutes
T1 construct: expressing an endogenous VIP receptor; host or cells: SUP-T1 human T-cell line
T1 sequence (P41587 24-438): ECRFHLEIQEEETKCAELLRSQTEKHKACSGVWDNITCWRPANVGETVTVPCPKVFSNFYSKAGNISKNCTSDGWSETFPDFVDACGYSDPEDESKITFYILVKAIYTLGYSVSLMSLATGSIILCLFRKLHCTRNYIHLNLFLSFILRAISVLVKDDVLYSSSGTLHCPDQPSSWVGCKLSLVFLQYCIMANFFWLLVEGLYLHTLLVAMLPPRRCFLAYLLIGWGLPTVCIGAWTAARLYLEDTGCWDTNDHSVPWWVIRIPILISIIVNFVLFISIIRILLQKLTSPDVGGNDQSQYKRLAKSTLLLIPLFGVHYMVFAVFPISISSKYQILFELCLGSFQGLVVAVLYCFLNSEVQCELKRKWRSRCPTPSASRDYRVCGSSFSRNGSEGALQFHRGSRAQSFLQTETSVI
Protocol: A productivity of cAMP was analyzed in vitro, in order to evaluate the activity intensity of the VIP peptide complexes showing the plasma stability in Experimental Example 4.
An intracellular cAMP productivity was evaluated using SUP-T1 cells which were derived from human T-cell, expressing an endogenous VIP receptor (purchased from ATCC). The SUP-T1 cells which were subjected to suspension culture for 48 or more hours were moved to a tube, and the cells were washed twice with a medium (RPMI-1640). After that, a medium including IBMX (3-isobutyl-1-methylxanthine), which was an inhibitor of a catabolic enzyme of the cAMP, was added thereto, and the mixture was incubated at 37° C. for 15 minutes. After centrifugation, the supernatant was removed, and an IBMX-containing medium including the VIP peptide complex was added thereto. The reaction was performed at 37° C. for 30 minutes. After the reaction, the tube was centrifuged, the supernatant was removed, and the cell lysate was added thereto. The mixture was incubated at 37° C. for 30 minutes to dissolve the cells, and the productivity was evaluated by the measurement of the cAMP. The cAMP measurement was performed using an enzyme-linked immunosorbent assay (ELISA) by chemiluminescence detection.
The activity intensity (%) of the VIP peptide complex was calculated according to the following formula.
Activity Intensity (%)=[{(the maximum amount of the cAMP produced in each VIP peptide complex)/(the maximum amount of the cAMP produced in native VIP)]×100

[1] = Plasma stability of VIP peptide complex (remaining rate in rat plasma); assay type: in vitro ADME, SD rats; settings: VIP complexes, 37° C.; for remaining at 8 h, 0.5 μmol/L / remaining at 48 h, 0.5 μmol/L: SD; for remaining at 8 h, 0.5 μmol/L: read-out: Remaining rate in plasma after 8 hours (%); for remaining at 48 h, 0.5 μmol/L: read-out: Remaining rate in plasma after 48 hours; for Remaining rate in plasma after 8 hours (%) / Remaining rate in plasma after 48 hours: 0.5 μmol/L
Protocol: The plasma stability was evaluated in vitro, in order to inspect the biostability of the VIP peptide complex.
SD rats were anesthetized with diethyl ether, whole blood was collected, and a plasma fraction was separated therefrom. The VIP or VIP-peptide complex was added to the plasma so that the final concentration thereof was 0.5 μmol/L, and the mixture was incubated at 37° C. A sample was recovered after 0, 8 or 48 hours, and a remaining rate was evaluated by an HPLC/MS measurement of an amount of the VIP or VIP peptide complex.

[2] = Plasma stability of ghrelin peptide complex (remaining rate in rat plasma); assay type: in vitro ADME, SD rats; settings: 37° C.
Protocol: Evaluation was performed in a manner in which after the treatment of the ghrelin or ghrelin peptide complex in plasma for a pre-determined time, an amount of change of the ghrelin or ghrelin peptide complex undecomposed was measured by an HPLC/MS.

[3] = Plasma stability of somatostatin peptide complex (remaining rate in rat plasma)
Protocol: The plasma stability was evaluated in vitro, in order to inspect the biostability of the somatostatin peptide complex.
SD rats were anesthetized with diethyl ether, whole blood was collected, and a plasma fraction was separated therefrom. The somatostatin or somatostatin peptide complex was added to the plasma so that the final concentration thereof was 0.5 μmol/L, and the mixture was incubated at 37° C. A sample was recovered after 0, 8 or 48 hours, and a remaining rate was evaluated by an HPLC/MS measurement of an amount of the somatostatin or somatostatin peptide complex.

endogenous SSTR 5 = target: T2, endogenous SSTR 5 (Mus musculus, UniProt O08858); test: Suppressibility of insulin secretion in MIN 6 cells; assay type: cell-based; settings: 20 mM glucose, 1-1000 nM
T2 construct: expressing an endogenous SSTR 5; endogenous in cells; host or cells: MIN 6 mouse insulinoma cells (obtained from a person)
T2 sequence (O08858 1-362): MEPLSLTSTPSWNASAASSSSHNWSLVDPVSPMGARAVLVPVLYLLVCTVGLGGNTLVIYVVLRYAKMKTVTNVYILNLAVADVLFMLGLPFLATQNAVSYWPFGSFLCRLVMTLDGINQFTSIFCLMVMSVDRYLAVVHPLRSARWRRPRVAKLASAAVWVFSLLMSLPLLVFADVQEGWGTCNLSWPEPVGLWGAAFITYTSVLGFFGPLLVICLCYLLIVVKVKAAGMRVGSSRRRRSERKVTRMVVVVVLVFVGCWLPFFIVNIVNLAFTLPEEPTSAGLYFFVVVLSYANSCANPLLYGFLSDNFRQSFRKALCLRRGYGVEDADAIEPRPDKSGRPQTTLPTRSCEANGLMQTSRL
Protocol: The suppressibility of insulin secretion was evaluated using MIN 6 (obtained from a person) which was an insulinoma cell derived from a mouse, expressing an endogenous SSTR 5. MIN 6 was seeded on a multi-plate, which was cultivated at 37° C. for 48 hours. […] A supernatant thereof was recovered, and an amount of insulin secreted was measured. The measurement of the insulin was performed in an enzyme-linked immunosorbent assay (ELISA), and an absorbance was measured at 450 nm (a sub-wavelength: 620 nm) after the addition of a substrate.
In this experiment, the activity evaluations of the native SRIF (Comparative Example 15) and the GAm (28-44)-SRIF-NH2(Example 29) were performed in a concentration of 1, 3, 10, 30, 100, 300, and 1000 nM, and the maximum suppression rate (%) of the insulin secretion was calculated. The maximum suppression rate (%) of the insulin secretion in the somatostatin peptide complex was calculated according to the following formula. Maximum Suppression Rate (%) of Insulin Secretion (%)=[{(the maximum value of the suppression of the insulin secretion in the SRIF peptide complex)/(the maximum value of the suppression of the insulin secretion in the native SRIF)]×100

| Compound | Activity Intensity (%), maximum amount of cAMP produced relative to native VIP (endogenous VIP receptor) [%] | remaining at 8 h, 0.5 μmol/L [1] [%] | remaining at 48 h, 0.5 μmol/L [1] [%] | Remaining rate in plasma after 8 hours (%) [1] | Remaining rate in plasma after 48 hours [1] [%] | further results |
| --- | --- | --- | --- | --- | --- | --- |
| CC[C@H](C)[C@H](NC(=O)[C@H](CCC(=O)O)NC(=O)[C@H](CC(=O)O)NC(=O)[C@@H](NC(=O)[C@H](CC(C)C)NC(=O)[C@H](CC(N)=O)NC(=O)[C@H](CC(C)C)NC(=O)[C@@H](NC(=O)[C@H](CO)NC(=O)[C@H](CC(N)=O)NC(=O)[C@H](CC(C)C)NC(=O)[C@H](Cc1ccc(O)cc1)NC(=O)[C@H](CCCCN)NC(=O)[C@H](CCCCN)NC(=O)[C@@H](NC(=O)[C@H](C)NC(=O)[C@H](CCSC)NC(=O)[C@H](CCC(N)=O)NC(=O)[C@H](CCCCN)NC(=O)[C@H](CCCNC(=N)N)NC(=O)[C@H](CC(C)C)NC(=O)[C@H](CCCNC(=N)N)NC(=O)[C@@H](NC(=O)[C@H](Cc1ccc(O)cc1)NC(=O)[C@H](CC(N)=O)NC(=O)[C@H](CC(=O)O)NC(=O)[C@@H](NC(=O)[C@H](Cc1ccccc1)NC(=O)[C@@H](NC(=O)[C@H](C)NC(=O)[C@H](CC(=O)O)NC(=O)[C@H](CO)NC(=O)[C@@H](N)Cc1c[nH]cn1)C(C)C)[C@@H](C)O)[C@@H](C)O)C(C)C)[C@@H](C)CC)[C@@H](C)CC)C(=O)N[C@@H](CC(C)C)C(=O)N[C@@H](C)C(=O)N[C@@H](C)C(N)=O [Example 25, VIP(1-28)-GAm(37-44)-NH2] | 81 | 118 | 118 | not totally decomposed | 118 | – |
| CCCCCCCC(=O)OC[C@H](NC(=O)[C@H](CO)NC(=O)CN)C(=O)N[C@@H](Cc1ccccc1)C(=O)N[C@@H](CC(C)C)C(=O)N[C@@H](CO)C(=O)N1CCC[C@H]1C(=O)N[C@@H](CCC(=O)O)C(=O)N[C@@H](Cc1c[nH]cn1)C(=O)N[C@@H](CCC(N)=O)C(=O)N[C@@H](CCCNC(=N)N)C(=O)N[C@H](C(=O)N[C@@H](CCC(N)=O)C(=O)N[C@@H](CCC(N)=O)C(=O)N[C@@H](CCCNC(=N)N)C(=O)N[C@@H](CCCCN)C(=O)N[C@@H](CCC(=O)O)C(=O)N[C@@H](CO)C(=O)N[C@@H](CCCCN)C(=O)N[C@@H](CCCCN)C(=O)N1CCC[C@H]1C(=O)N1CCC[C@H]1C(=O)N[C@@H](C)C(=O)N[C@@H](CCCCN)C(=O)N[C@@H](CC(C)C)C(=O)N[C@@H](CCC(N)=O)C(=O)N1CCC[C@H]1C(=O)N[C@@H](CCCNC(=N)N)C(N)=O)C(C)C [Comparative Example 17, Ghrelin(1-28)-NH2] | – | – | – | – | – | Remaining rate in plasma after 2 hours (%) ([2]; 0.5 μmol/L, 2 hours): 14%; remaining at 0.5 h, 0.5 μmol/L ([2]; SD, 0.5 hour, read-out: Remaining rate in plasma after 0.5 hour (%)): 50%; remaining at 2 h, 0.5 μmol/L ([2]; SD, 2 hours, read-out: Remaining rate in plasma after 2 hours (%)): 14%; remaining at 8 h, 0.5 μmol/L ([2]; SD, 8 hours, read-out: Remaining rate in plasma after 8 hours (%)): 0% |
| CC[C@H](C)[C@H](NC(=O)[C@H](CO)NC(=O)[C@H](CC(N)=O)NC(=O)[C@H](CC(C)C)NC(=O)[C@H](Cc1ccc(O)cc1)NC(=O)[C@H](CCCCN)NC(=O)[C@H](CCCCN)NC(=O)[C@@H](NC(=O)[C@H](C)NC(=O)[C@H](CCSC)NC(=O)[C@H](CCC(N)=O)NC(=O)[C@H](CCCCN)NC(=O)[C@H](CCCNC(=N)N)NC(=O)[C@H](CC(C)C)NC(=O)[C@H](CCCNC(=N)N)NC(=O)[C@@H](NC(=O)[C@H](Cc1ccc(O)cc1)NC(=O)[C@H](CC(N)=O)NC(=O)[C@H](CC(=O)O)NC(=O)[C@@H](NC(=O)[C@H](Cc1ccccc1)NC(=O)[C@@H](NC(=O)[C@H](C)NC(=O)[C@H](CC(=O)O)NC(=O)[C@H](CO)NC(=O)[C@@H](N)Cc1c[nH]cn1)C(C)C)[C@@H](C)O)[C@@H](C)O)C(C)C)C(=O)N[C@@H](CC(C)C)C(=O)N[C@@H](CC(N)=O)C(N)=O [Comparative Example 14, VIP(1-28)-NH2, reference compound] | 100 | 0 | 0 | completely decomposed | – | – |
| HSDAVFTDNYTRLRKQMAVKKYLNSILNEGVKALIDEILAA-NH2 [Example 26, VIP(1-28)-GAm(32-44)-NH2] | 85 | 99 | 47 | not totally decomposed | 47 | – |
| C[C@H](N)C(=O)NCC(=O)N[C@H]1CSSC[C@@H](C(N)=O)NC(=O)[C@H](CO)NC(=O)[C@H]([C@@H](C)O)NC(=O)[C@H](Cc2ccccc2)NC(=O)[C@H]([C@@H](C)O)NC(=O)[C@H](CCCCN)NC(=O)[C@H](Cc2c[nH]c3ccccc23)NC(=O)[C@H](Cc2ccccc2)NC(=O)[C@H](Cc2ccccc2)NC(=O)[C@H](CC(N)=O)NC(=O)[C@H](CCCCN)NC1=O [Comparative Example 15, SRIF(1-14)-NH2, reference compound] | – | – | – | – | – | remaining at 8 h, 0.5 μmol/L ([3]; SD, rat, plasma): 0%; remaining at 48 h, 0.5 μmol/L ([3]; SD, rat, plasma): 0%; Remaining rate in plasma after 8 hours (%) ([3]; somatostatin complexes, rat plasma, 0.5 μmol/L, 37° C., 8 hours): completely decomposed; Suppression rate of insulin secretion (%), maximum, relative to native SRIF (endogenous SSTR 5): 100% |
| HSDAVFTDNYTRLRKQMAVKKYLNSILNAKTVEGVKALIDEILAA-NH2 [Example 27, VIP(1-28)-GAm(28-44)-NH2] | 67 | 109 | 35 | not totally decomposed | 35 | – |
